In patent publication US20240270741A1 (Cogent Biosciences, Inc., priority 2023, published 2024):
Structures can show the parent of a compound that is named as a salt.

Molecular target: FGFR2 (Homo sapiens, UniProt P21802)
Assay: FGFR wild type enzyme assay (HTRF KinEASE-TK), FGFR2
Conditions: Enz FGFR2 (nM)

FGFR2, sequence (P21802 399-821 limits assumed): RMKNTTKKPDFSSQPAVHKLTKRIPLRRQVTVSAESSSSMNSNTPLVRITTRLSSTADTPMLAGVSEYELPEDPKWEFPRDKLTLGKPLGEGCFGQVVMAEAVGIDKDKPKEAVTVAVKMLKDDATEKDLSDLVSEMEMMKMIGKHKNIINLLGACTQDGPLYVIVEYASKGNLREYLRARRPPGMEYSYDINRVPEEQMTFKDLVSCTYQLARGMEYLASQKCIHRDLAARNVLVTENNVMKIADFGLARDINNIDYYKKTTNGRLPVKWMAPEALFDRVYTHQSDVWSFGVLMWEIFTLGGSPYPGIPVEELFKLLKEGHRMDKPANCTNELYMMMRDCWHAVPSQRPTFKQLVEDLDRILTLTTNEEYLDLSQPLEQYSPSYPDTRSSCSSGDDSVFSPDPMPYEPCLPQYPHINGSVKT

| SMILES | IC50 |
| --- | --- |
| CSc1cc(-c2cnn([C@H]3CCCNC3)c2)cn2ncc(C#N)c12 [Example 50, 4-methylsulfanyl-6-[1-[(3S)-3-piperidyl]pyrazol-4-yl] pyrazolo[1,5-a]pyridine-3-carbonitrile] | 2 nM |
| N#Cc1cnn2cc(-c3cnn([C@H]4CCCNC4)c3)cc(SC3CCC3)c12 [Example 54, 4-cyclobutylsulfanyl-6-[1-[(3S)-3-piperidyl]pyrazol-4-yl]pyrazolo[1,5-a]pyridine-3-carbonitrile] | 1 nM |
| N#Cc1cnn2cc(-c3cnn([C@H]4CCCNC4)c3)cc(SC3CCOC3)c12 (stereo partly drawn) [Example 58, 6-[1-[(3S)-3-piperidyl]pyrazol-4-yl]-4-tetrahydrofuran-3-ylsulfanyl-pyrazolo[1,5-a]pyridine-3-carbonitrile] | 4 nM |
| Cc1ccnc(Sc2cc(-c3cnn([C@H]4CCCNC4)c3)cn3ncc(C#N)c23)c1 [Example 59, 4-[(4-methyl-2-pyridyl)sulfanyl]-6-[1-[(3S)-3-piperidyl]pyrazol-4-yl]pyrazolo[1,5-a]pyridine-3-carbonitrile] | 11 nM |
| N#Cc1cnn2cc(-c3cnn([C@H]4CCCNC4)c3)cc(Sc3ncccc3F)c12 [Example 63, 4-[(3-fluoro-2-pyridyl)sulfanyl]-6-[1-[(3S)-3-piperidyl]pyrazol-4-yl]pyrazolo[1,5-a]pyridine-3-carbonitrile] | 1 nM |
| N#Cc1cnn2cc(-c3cnn([C@H]4CCCNC4)c3)cc(Sc3cccc(C(F)(F)F)n3)c12 [Example 68, 6-[1-[(3S)-3-piperidyl]pyrazol-4-yl]-4-[[6-(trifluoromethyl)-2-pyridyl]sulfanyl] pyrazolo[1,5-a]pyridine-3-carbonitrile] | 68 nM |
| N#Cc1cccc(Sc2cc(-c3cnn(C4CCNCC4)c3)cn3ncc(C#N)c23)c1 [Example 69, 4-((3-cyanophenyl)thio)-6-(1-(piperidin-4-yl)-1H-pyrazol-4-yl)pyrazolo[1,5-a]pyridine-3-carbonitrile] | 8 nM |
| Cc1ccc(F)c(Sc2cc(-c3cnn(C4CCNCC4)c3)cn3ncc(C#N)c23)n1 [Example 70, 4-((3-fluoro-6-methylpyridin-2-yl)thio)-6-(1-(piperidin-4-yl)-1H-pyrazol-4-yl)pyrazolo[1,5-a]pyridine-3-carbonitrile, HCl] | 3 nM |
| Cc1ccnc(Sc2cc(-c3cnn(C4CCNCC4)c3)cn3ncc(C#N)c23)c1C [Example 72, 4-((3,4-dimethylpyridin-2-yl)thio)-6-(1-(piperidin-4-yl)-1H-pyrazol-4-yl)pyrazolo[1,5-a]pyridine-3-carbonitrile] | 3 nM |
| N#Cc1cnn2cc(-c3cnn([C@H]4CCNC4)c3)cc(Sc3ccccn3)c12 [Example 73, (S)-4-(pyridin-2-ylthio)-6-(1-(pyrrolidin-3-yl)-1H-pyrazol-4-yl)pyrazolo[1,5-a]pyridine-3-carbonitrile, HCl] | 4 nM |
| N#Cc1cnn2cc(-c3cnn([C@H]4CCCNC4)c3)cc(Sc3ccccc3CO)c12 [Example 74, 4-[2-(hydroxymethyl)phenyl]sulfa-nyl-6-[1-[(3S)-3-piperidyl]pyrazol-4-yl]pyrazolo[1,5-a]pyridine-3-carbonitrile] | 6 nM |
| N#Cc1cnn2cc(-c3cnn([C@H]4CCCNC4)c3)cc(Sc3cccc(C(F)F)n3)c12 [Example 75, 4-[[6-(difluoromethyl)-2-pyridyl]sulfanyl]-6-[1-[(3S)-3-piperidyl]pyrazol-4-yl]pyrazolo[1,5-a]pyridine-3-carbonitrile] | 22 nM |
| N#Cc1cnn2cc(-c3cnn([C@H]4CCCNC4)c3)cc(Sc3ccncn3)c12 [Example 76, 6-[1-[(3S)-3-piperidyl]pyrazol-4-yl]-4-pyrimidin-4-ylsulfanyl-pyrazolo[1,5-a]pyridine-3-carbonitrile] | 237 nM |
| Cc1cc(F)cc(Sc2cc(-c3cnn([C@H]4CCCNC4)c3)cn3ncc(C#N)c23)n1 [Example 78, 4-[(4-fluoro-6-methyl-2-pyridyl)sulfanyl]-6-[1-[(3S)-3-piperidyl]pyrazol-4-yl]pyrazolo[1,5-a]pyridine-3-carbonitrile] | 27 nM |
| CC(C)OC[C@@H](C)Sc1cc(-c2cnn([C@H]3CCCNC3)c2)cn2ncc(C#N)c12 [Example 79, 4-[(1R)-2-isopropoxy-1-methyl-ethyl]sulfanyl-6-[1-[(3S)-3-piperidyl]pyrazol-4-yl]pyrazolo[1,5-a]pyridine-3-carbonitrile] | 2 nM |
| Cc1ccncc1Sc1cc(-c2cnn([C@H]3CCCNC3)c2)cn2ncc(C#N)c12 [Example 80, 4-[(4-methyl-3-pyridyl)sulfanyl]-6-[1-[(3S)-3-piperidyl]pyrazol-4-yl]pyrazolo[1,5-a]pyridine-3-carbonitrile] | 8 nM |
| N#Cc1cnn2cc(-c3cnn([C@H]4CCCNC4)c3)cc(Sc3cccnn3)c12 [Example 82, 6-[1-[(3S)-3-piperidyl]pyrazol-4-yl]-4-pyridazin-3-ylsulfanyl-pyrazolo[1,5-a]pyridine-3-carbonitrile] | 32 nM |

Results, then the compound that gave them:

| IC50 | SMILES |
| --- | --- |
| 1 nM | CCSc1cc(-c2cnn([C@H]3CCCNC3)c2)cn2ncc(C#N)c12 [Example 51, 4-ethylsulfanyl-6-[1-[(3S)-3-piperidyl]pyrazol-4-yl]pyrazolo[1,5-a]pyridine-3-carbonitrile] |
| 2 nM | CC(C)Sc1cc(-c2cnn([C@H]3CCCNC3)c2)cn2ncc(C#N)c12 [Example 52, 4-isopropylsulfanyl-6-[1-[(3S)-3-piperidyl]pyrazol-4-yl]pyrazolo[1,5-a]pyridine-3-carbonitrile] |
| 3 nM | COCCSc1cc(-c2cnn([C@H]3CCCNC3)c2)cn2ncc(C#N)c12 [Example 53, 4-(2-methoxyethylsulfanyl)-6-[1-[(3S)-3-piperidyl]pyrazol-4-yl]pyrazolo[1,5-a]pyridine-3-carbonitrile] |
| 13 nM | N#Cc1cnn2cc(-c3cnn([C@H]4CCCNC4)c3)cc(Sc3cnccn3)c12 [Example 55, 6-[1-[(3S)-3-piperidyl]pyrazol-4-yl]-4-pyrazin-2-ylsulfanyl-pyrazolo[1,5-a]pyridine-3-carbonitrile] |
| 6 nM | Cc1c(-c2cc(Sc3ccccn3)c3c(C#N)cnn3c2)cnn1[C@H]1CCCNC1 [Example 56, 6-[5-methyl-1-[(3S)-3-piperidyl]pyrazol-4-yl]-4-(2-pyridylsulfanyl)pyrazolo[1,5-a]pyridine-3-carbonitrile] |
| 13 nM | Cn1ncc2cc(Sc3cc(-c4cnn([C@H]5CCCNC5)c4)cn4ncc(C#N)c34)ccc21 [Example 57, 4-(1-methylindazol-5-yl)sulfanyl-6-[1-[(3S)-3-piperidyl]pyrazol-4-yl]pyrazolo[1,5-a]pyridine-3-carbonitrile] |
| 7 nM | N#Cc1cnn2cc(-c3cnn(C4CCNCC4)c3)cc(Sc3ncccn3)c12 [Example 60, 6-(1-(piperidin-4-yl)-1H-pyrazol-4-yl)-4-(pyrimidin-2-ylthio)pyrazolo[1,5-a]pyridine-3-carbonitrile, HCl] |
| 9 nM | Cn1nccc1Sc1cc(-c2cnn(C3CCNCC3)c2)cn2ncc(C#N)c12 [Example 61, 4-((1-methyl-1H-pyrazol-5-yl)thio)-6-(1-(piperidin-4-yl)-1H-pyrazol-4-yl)pyrazolo[1,5-a]pyridine-3-carbonitrile, HCl] |
| 0.3 nM | N#Cc1ccccc1Sc1cc(-c2cnn(C3CCNCC3)c2)cn2ncc(C#N)c12 [Example 62, 4-((2-cyanophenyl)thio)-6-(1-(piperidin-4-yl)-1H-pyrazol-4-yl)pyrazolo[1,5-a]pyridine-3-carbonitrile] |
| 61 nM | N#Cc1cnn2cc(-c3cnn([C@H]4CCCNC4)c3)cc(Sc3cc(C(F)(F)F)ccn3)c12 [Example 64, 6-[1-[(3S)-3-piperidyl]pyrazol-4-y1]-4-[[4-(trifluoromethyl)-2-pyridyl]sulfanyl]pyrazolo[1,5-a]pyridine-3-carbonitrile] |
| 4 nM | Cc1cccnc1Sc1cc(-c2cnn(C3CCNCC3)c2)cn2ncc(C#N)c12 [Example 65, 4-((3-methylpyridin-2-yl)thio)-6-(1-(piperidin-4-yl)-1H-pyrazol-4-yl)pyrazolo[1,5-a]pyridine-3-carbonitrile, HCl] |
| 12 nM | Cc1cc(Sc2cc(-c3cnn(C4CCNCC4)c3)cn3ncc(C#N)c23)n(C)n1 [Example 66, 4-((1,3-dimethyl-1H-pyrazol-5-yl)thio)-6-(1-(piperidin-4-yl)-1H-pyrazol-4-yl)pyrazolo[1,5-a]pyridine-3-carbonitrile, HCl] |
| 4 nM | N#Cc1cnn2cc(-c3cnn([C@H]4CCCNC4)c3)cc(Sc3ncccc3C(F)(F)F)c12 [Example 67] |
| 99 nM | N#Cc1cccc(Sc2cc(-c3cnn([C@H]4CCCNC4)c3)cn3ncc(C#N)c23)n1 [Example 77, 4-[(6-cyano-2-pyridyl)sulfanyl]-6-[1-[(3S)-3-piperidyl]pyrazol-4-yl]pyrazolo[1,5-a]pyridine-3-carbonitrile] |
| 31 nM | Cc1ncccc1Sc1cc(-c2cnn([C@H]3CCCNC3)c2)cn2ncc(C#N)c12 [Example 81, 4-[(2-methyl-3-pyridyl)sulfanyl]-6-[1-[(3S)-3-piperidyl]pyrazol-4-yl]pyrazolo[1,5-a]pyridine-3-carbonitrile] |
| 19 nM | N#Cc1cnn2cc(-c3cnn([C@H]4CCCNC4)c3)cc(Sc3cncnc3)c12 [Example 83, 6-[1-[(3S)-3-piperidyl]pyrazol-4-yl]-4-pyrimidin-5-ylsulfanyl-pyrazolo[1,5-a] pyridine-3-carbonitrile] |
| 11 nM | Cc1ccnc(C)c1Sc1cc(-c2cnn([C@H]3CCCNC3)c2)cn2ncc(C#N)c12 [Example 84, 4-[(2,4-dimethyl-3-pyridyl)sulfanyl]-6-[1-[(3S)-3-piperidyl]pyrazol-4-yl]pyrazolo[1,5-a]pyridine-3-carbonitrile] |

Same assay, conditions: Enz FGFR2 (nM), FGFR2 wild type enzyme assay

| IC50 | SMILES |
| --- | --- |
| 1 nM | Cc1c(-c2cc(Sc3ccc(F)cc3C#N)c3c(C#N)cnn3c2)cnn1C1CCC(C)(C)NC1 (stereo in doubt) [Example 529, 4-(2-cyano-4-fluoro-phenyl)sulfanyl-6-[1-[(3R)-6,6-dimethyl-3-piperidyl]-5-methyl-pyrazol-4-yl]pyrazolo[1,5-a]pyridine-3-carbonitrile] |
